ChEMBL document CHEMBL2380247, “Synthesis and biological evaluation of novel aliphatic amido-quaternary ammonium salts for anticancer chemotherapy: part II” (2013)
Calls of active or inactive are those of the source. No cut-off for these calls is given here.

Experiments:
PC-3 [1] = assay: Antiproliferative activity against human PC3 cells at 0.3 uM by SRB assay; format: functional
ACHN [2] = assay: Antiproliferative activity against human ACHN cells at 1 uM by SRB assay; format: functional
HCT-15 [3] = assay: Antiproliferative activity against human HCT15 cells by SRB assay; format: functional
NCI-H23 [4] = assay: Antiproliferative activity against human NCI-H23 cells at 3 uM by SRB assay; format: functional
ACHN [5] = assay: Antiproliferative activity against human ACHN cells at 10 uM by SRB assay; format: functional
PC-3 [6] = assay: Antiproliferative activity against human PC3 cells by SRB assay; format: functional
PC-3 [7] = assay: Antiproliferative activity against human PC3 cells at 1 uM by SRB assay; format: functional
PC-3 [8] = assay: Antiproliferative activity against human PC3 cells at 0.1 uM by SRB assay; format: functional
ACHN [9] = assay: Antiproliferative activity against human ACHN cells at 0.1 uM by SRB assay; format: functional
NUGC-3 [10] = assay: Antiproliferative activity against human NUGC3 cells by SRB assay; format: functional
NCI-H23 [11] = assay: Antiproliferative activity against human NCI-H23 cells at 10 uM by SRB assay; format: functional
MDA-MB-231 [12] = assay: Antiproliferative activity against human MDA-MB-231 cells at 0.1 uM by SRB assay; format: functional
NUGC-3 [13] = assay: Antiproliferative activity against human NUGC3 cells at 0.1 uM by SRB assay; format: functional
ACHN [14] = assay: Antiproliferative activity against human ACHN cells at 0.3 uM by SRB assay; format: functional
NUGC-3 [15] = assay: Antiproliferative activity against human NUGC3 cells at 1 uM by SRB assay; format: functional
HCT-15 [16] = assay: Antiproliferative activity against human HCT15 cells at 3 uM by SRB assay; format: functional
HCT-15 [17] = assay: Antiproliferative activity against human HCT15 cells at 10 uM by SRB assay; format: functional
ACHN [18] = assay: Antiproliferative activity against human ACHN cells by SRB assay; format: functional
NUGC-3 [19] = assay: Antiproliferative activity against human NUGC3 cells at 0.3 uM by SRB assay; format: functional
NUGC-3 [20] = assay: Antiproliferative activity against human NUGC3 cells at 3 uM by SRB assay; format: functional
MDA-MB-231 [21] = assay: Antiproliferative activity against human MDA-MB-231 cells at 3 uM by SRB assay; format: functional
MDA-MB-231 [22] = assay: Antiproliferative activity against human MDA-MB-231 cells at 0.3 uM by SRB assay; format: functional
NUGC-3 [23] = assay: Antiproliferative activity against human NUGC3 cells at 10 uM by SRB assay; format: functional
PC-3 [24] = assay: Antiproliferative activity against human PC3 cells at 3 uM by SRB assay; format: functional
MDA-MB-231 [25] = assay: Antiproliferative activity against human MDA-MB-231 cells at 10 uM by SRB assay; format: functional
HCT-15 [26] = assay: Antiproliferative activity against human HCT15 cells at 0.1 uM by SRB assay; format: functional
NCI-H23 [27] = assay: Antiproliferative activity against human NCI-H23 cells by SRB assay; format: functional
NCI-H23 [28] = assay: Antiproliferative activity against human NCI-H23 cells at 0.1 uM by SRB assay; format: functional
NCI-H23 [29] = assay: Antiproliferative activity against human NCI-H23 cells at 0.3 uM by SRB assay; format: functional
PC-3 [30] = assay: Antiproliferative activity against human PC3 cells at 10 uM by SRB assay; format: functional
HCT-15 [31] = assay: Antiproliferative activity against human HCT15 cells at 0.3 uM by SRB assay; format: functional
HCT-15 [32] = assay: Antiproliferative activity against human HCT15 cells at 1 uM by SRB assay; format: functional
NCI-H23 [33] = assay: Antiproliferative activity against human NCI-H23 cells at 1 uM by SRB assay; format: functional
[34] = molecular target: Rho-related GTP-binding protein RhoB (Homo sapiens) (UniProt P62745); assay: Transactivation of RhoB in human HeLa cells by luciferase reporter assay; format: cell-based
Sequence of Rho-related GTP-binding protein RhoB (Homo sapiens) (P62745 whole entry): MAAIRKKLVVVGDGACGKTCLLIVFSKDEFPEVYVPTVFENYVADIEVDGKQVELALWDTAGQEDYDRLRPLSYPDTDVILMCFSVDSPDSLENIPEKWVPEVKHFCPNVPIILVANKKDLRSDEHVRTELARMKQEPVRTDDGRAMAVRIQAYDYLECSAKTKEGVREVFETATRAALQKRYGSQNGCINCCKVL

ACHN [35] = assay: Antiproliferative activity against human ACHN cells at 3 uM by SRB assay; format: functional
MDA-MB-231 [36] = assay: Antiproliferative activity against human MDA-MB-231 cells by SRB assay; format: functional
MDA-MB-231 [37] = assay: Antiproliferative activity against human MDA-MB-231 cells at 1 uM by SRB assay; format: functional

GI50 (HCT-15 [3]) [nM]	GI50 (PC-3 [6]) [nM]	GI50 (ACHN [18]) [nM]	SMILES	growth, % of control at 0.3 µM (PC-3 [1]) [%]	growth, % of control at 1 µM (ACHN [2]) [%]	growth, % of control at 3 µM (NCI-H23 [4]) [%]	growth, % of control at 10 µM (ACHN [5]) [%]	growth, % of control at 1 µM (PC-3 [7]) [%]	growth, % of control at 0.1 µM (PC-3 [8]) [%]	growth, % of control at 0.1 µM (ACHN [9]) [%]	GI50 (NUGC-3 [10]) [nM]	growth, % of control at 10 µM (NCI-H23 [11]) [%]	growth, % of control at 0.1 µM (MDA-MB-231 [12]) [%]	growth, % of control at 0.1 µM (NUGC-3 [13]) [%]	growth, % of control at 0.3 µM (ACHN [14]) [%]	growth, % of control at 1 µM (NUGC-3 [15]) [%]	growth, % of control at 3 µM (HCT-15 [16]) [%]	growth, % of control at 10 µM (HCT-15 [17]) [%]	growth, % of control at 0.3 µM (NUGC-3 [19]) [%]	growth, % of control at 3 µM (NUGC-3 [20]) [%]	further results
1470	410	260	CCCCCCCCCCCCCC(=O)N(C)CC[N+](C)(C)C	96.4	34.4	36.1	-15.9	38.4	96.6	84.4	220	4.1	98.5	100	73.3	22.5	53.1	19.2	70.9	-3.9	growth, % of control at 3 µM (MDA-MB-231 [21]): 26.6%; growth, % of control at 0.3 µM (MDA-MB-231 [22]): 94.7%; growth, % of control at 10 µM (NUGC-3 [23]): -11.9%; growth, % of control at 3 µM (PC-3 [24]): -4.8%; growth, % of control at 10 µM (MDA-MB-231 [25]): 5.2%; growth, % of control at 0.1 µM (HCT-15 [26]): 91%; GI50 (NCI-H23 [27]): 920 nM; growth, % of control at 0.1 µM (NCI-H23 [28]): 99.8%; growth, % of control at 0.3 µM (NCI-H23 [29]): 80.1%; growth, % of control at 10 µM (PC-3 [30]): -21.7%; growth, % of control at 0.3 µM (HCT-15 [31]): 90.4%; growth, % of control at 1 µM (HCT-15 [32]): 82.4%; growth, % of control at 1 µM (NCI-H23 [33]): 79.7%; Activity [34]: Active; growth, % of control at 3 µM (ACHN [35]): 9.6%; GI50 (MDA-MB-231 [36]): 800 nM; growth, % of control at 1 µM (MDA-MB-231 [37]): 74.2%
1310	370	450	CCCCCCCCCCCCCCCC(=O)N(C)CC[N+](C)(C)C	87.9	42	58	-19.1	37.3	96	87.9	170	0	106	77.8	85.9	26.8	45.2	15.8	57.7	-0.9	growth, % of control at 3 µM (MDA-MB-231 [21]): 41.4%; growth, % of control at 0.3 µM (MDA-MB-231 [22]): 100%; growth, % of control at 10 µM (NUGC-3 [23]): -19.4%; growth, % of control at 3 µM (PC-3 [24]): 3.5%; growth, % of control at 10 µM (MDA-MB-231 [25]): -1.2%; growth, % of control at 0.1 µM (HCT-15 [26]): 99.9%; GI50 (NCI-H23 [27]): 1540 nM; growth, % of control at 0.1 µM (NCI-H23 [28]): 101%; growth, % of control at 0.3 µM (NCI-H23 [29]): 102%; growth, % of control at 10 µM (PC-3 [30]): -15.8%; growth, % of control at 0.3 µM (HCT-15 [31]): 102%; growth, % of control at 1 µM (HCT-15 [32]): 79.6%; growth, % of control at 1 µM (NCI-H23 [33]): 83.7%; Activity [34]: Active; growth, % of control at 3 µM (ACHN [35]): 31.9%; GI50 (MDA-MB-231 [36]): 1140 nM; growth, % of control at 1 µM (MDA-MB-231 [37]): 81.6%
1980	490	760	CCCCCCCCCCCCCCCC(=O)N(C)CCC[N+](C)(C)C	108	58.9	33.7	1.49	47.2	106	91.6	190	-14.1	97.7	97	86.8	4.68	54	29.6	68	-31.9	growth, % of control at 3 µM (MDA-MB-231 [21]): 46.6%; growth, % of control at 0.3 µM (MDA-MB-231 [22]): 96.1%; growth, % of control at 10 µM (NUGC-3 [23]): -38.4%; growth, % of control at 3 µM (PC-3 [24]): 0.07%; growth, % of control at 10 µM (MDA-MB-231 [25]): 21.7%; growth, % of control at 0.1 µM (HCT-15 [26]): 98.7%; GI50 (NCI-H23 [27]): 960 nM; growth, % of control at 0.1 µM (NCI-H23 [28]): 98.7%; growth, % of control at 0.3 µM (NCI-H23 [29]): 99.2%; growth, % of control at 10 µM (PC-3 [30]): -16.5%; growth, % of control at 0.3 µM (HCT-15 [31]): 99.1%; growth, % of control at 1 µM (HCT-15 [32]): 82.7%; growth, % of control at 1 µM (NCI-H23 [33]): 76.5%; Activity [34]: Active; growth, % of control at 3 µM (ACHN [35]): 39.5%; GI50 (MDA-MB-231 [36]): 1420 nM; growth, % of control at 1 µM (MDA-MB-231 [37]): 76.6%
